The text below walks through data of US20110136751A1, “Use of Polyphenols in the Treatment of Cancer” (Green Molecular, priority 2009, published 2011).

For one data set, the system named is human tumor cells. Briefly: Autophagy activation (LC3-II, P62/SQSTM1, GFP-LC3). The settings on record: at bioavailable concentrations. Type of data set: cell-based. From the text: In addition, there are different molecular events associating pterostilbene with autophagy activation: a) an increase of LC3-II form, indicating the processing of LC3 protein to its lapidated form; and b) an increase in P62/SQSTM1 bands and GFP-LC3 punctuation, indicating P62 accumulation and translocation of LC3 to autophagic membranes, respectively. An acute loss of tubulin organization, indicating cell cycle arrest, was also detected by immunochemistry.

In data set [1] the test system is Human melanoma (A375), breast cancer (MCF7), lung cancer (A549), and colon cancer (HT29) cell lines. Put plainly: Necrosis induction (LDH released to the extracellular medium). The settings on record: with increasing concentration; FIG. 10. The class given is cell-based. Here is the method:
Necrosis induction was evaluated by measuring lactate dehydrogenase (LDH) activity released to the extracellular medium. Cells were exposed to polyphenols for 24-72 h. Results are expressed as relative LDH activity±SD (n=3) where control is 100.
The tumor cell death induced by pterostilbene appears to be partially independent of caspase activity.

For data set [2] the following is noted: cited from earlier work.

As for `COc1cc(/C=C/c2ccc(O)cc2)cc(OC)c1` [t-PTER, trans-3,5-dimethoxy-4′-hydroxystilbene], the autophagy result in the data set with human tumor cells was “activates autophagy”. Also, the “Necrosis (LDH activity released to the extracellular medium)” value in data set [1] is given as “progressively activated”.

For the molecule `O=c1c(O)c(-c2ccc(O)c(O)c2)oc2cc(O)cc(O)c12` [QUER, quercetin], in data set [2] (1400 mg QUER/m^2, the two affected patients, first 24 hours), the “reduction in glomerular flow rate” value is about 20%. Moreover, in data set [2] (daily i.v. bolus doses of 100 mg QUER/m2, human patients), the tolerability result is recorded as “well tolerated”. Besides, in data set [2] (i.v. bolus of 1400 mg QUER/m^2 once weekly for three weeks), the renal toxicity result is “two of ten patients”.

For the molecule `Oc1ccc(/C=C/c2cc(O)cc(O)c2)cc1` [RI, trans-3,5,4′-trihydroxystilbene, reference compound], the “Necrosis (LDH activity released to the extracellular medium)” value in data set [1] is recorded as “progressively activated”.
